The text below walks through data of PubChem BioAssay (NCI).

Values joined by “and” are separate entries in the source; they are usually repeats but may differ in a detail not shown here. Equal values may be shown once.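 Grown in 96-well plates, cells were treated for 48 hours with each compound at five concentrations. Insufficient inhibition: endpoint recorded as highest concentration tested. Here, GI50 denotes the concentration required for 50% inhibition of growth. TGI: total growth inhibition.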 A value given as a limit tells only on which side of the number the result lay.

Some test systems named below: SW-620 colon; SF-539 CNS; NCI/ADR-RES ovarian; EKVX NSCLC; UACC-257 melanoma; DU-145 prostate; SNB-75 CNS; NCI-H23 lung; SK-OV-3 ovarian; MOLT-4 leukemia; ACHN renal; M14 melanoma; OVCAR-8 ovarian; SN12C renal; SK-MEL-2 melanoma; SR leukemia.
Common to all, as to experiment: NCI tumour cell line growth inhibition, 48 h

For `Cc1cc2/c(=C\c3ccc(N(C)C)cc3)c3ccccc3n2[n+]1C`, the TGI is over 32 µM with SW-620 colon; 5.61 µM in the experiment with SF-539 CNS; over 100 µM with NCI/ADR-RES ovarian; 8.79 µM in the experiment with EKVX NSCLC; 1.07 µM in the experiment with UACC-257 melanoma; 4.16 µM in the experiment with DU-145 prostate. For the same compound, the TGI in the experiment on SNB-75 CNS is 2.26 µM; in the experiment with NCI-H23 lung it was 3.23 µM; in the experiment with SK-OV-3 ovarian, 14.3 µM; with MOLT-4 leukemia it was 1.32 µM; with ACHN renal, 10 µM; in the experiment with M14 melanoma it was 3.73 µM. Besides, the TGI in the experiment on OVCAR-8 ovarian worked out at 1.78 µM; in the experiment with SN12C renal, 1.65 µM; with SK-MEL-2 melanoma, 2.08 µM.

In the case of `c1cc2c(s1)-c1sccc1C21OCCO1`, the TGI with SF-539 CNS, in the experiment on NCI/ADR-RES ovarian, in the experiment with EKVX NSCLC, in the experiment with UACC-257 melanoma, with DU-145 prostate and in the experiment on NCI-H23 lung was over 100 µM each time. In addition, the TGI in the experiment on MOLT-4 leukemia, in the experiment with ACHN renal, in the experiment on M14 melanoma, in the experiment with OVCAR-8 ovarian, in the experiment with SR leukemia and in the experiment on SN12C renal was over 100 µM throughout. In the experiment on SK-MEL-2 melanoma, the TGI was over 100 µM.

For `COC(CN(C(C)=O)C1CCC2(SCCS2)c2[nH]c3ccccc3c21)OC` (stereo not drawn), the TGI in the experiment with SW-620 colon is over 100 µM; in the experiment on SF-539 CNS, over 100 µM; in the experiment with NCI/ADR-RES ovarian it was over 100 µM; in the experiment on EKVX NSCLC it was over 100 µM; with UACC-257 melanoma it was 3.36 µM; in the experiment with DU-145 prostate it was over 100 µM. Moreover, the TGI in the experiment on SNB-75 CNS, in the experiment with NCI-H23 lung, in the experiment on MOLT-4 leukemia, in the experiment on ACHN renal, in the experiment on M14 melanoma and in the experiment on OVCAR-8 ovarian was over 100 µM each time. In addition, the TGI with SR leukemia, with SN12C renal and with SK-MEL-2 melanoma was over 100 µM in each case.

For the compound `O=C(OC1C2OC(=O)c3cc(O)c(O)c(O)c3Oc3cc4c(c(O)c3O)-c3c(cc(O)c(O)c3O)C(=O)OCC3OC(O)C(OC(=O)c5cc(O)c(O)c(O)c5Oc5cc6c(c(O)c5O)-c5c(cc(O)c(O)c5O)C(=O)OC1C(COC6=O)OC2O)C(OC(=O)c1cc(O)c(O)c(O)c1)C3OC4=O)c1cc(O)c(O)c(O)c1` (stereo not drawn), the TGI in the experiment with SW-620 colon is 40.5 µM; in the experiment with SF-539 CNS, 65.6 µM; with NCI/ADR-RES ovarian, over 100 µM; in the experiment on EKVX NSCLC, 37.9 µM; in the experiment with UACC-257 melanoma it was over 100 µM; with DU-145 prostate, over 100 µM. Besides, the TGI in the experiment with NCI-H23 lung was 62.6 µM; with SK-OV-3 ovarian, 44.4 µM; with MOLT-4 leukemia, 12.2 µM; with ACHN renal, over 100 µM; in the experiment with M14 melanoma, over 100 µM; in the experiment with OVCAR-8 ovarian, 81.3 µM. Moreover, the TGI with SR leukemia was 27.3 µM; in the experiment with SN12C renal, over 100 µM.

Regarding `CN1CN(c2ccccc2)C2(CCN(CC(C)(c3ccc(F)cc3)C3OCCCO3)CC2)C1=O` (stereo not drawn), the TGI was 43.7 µM in the experiment with SW-620 colon; 26.5 µM in the experiment with SF-539 CNS; 26.9 µM in the experiment with NCI/ADR-RES ovarian; 54.8 µM in the experiment with EKVX NSCLC; 31.5 µM with UACC-257 melanoma; over 100 µM in the experiment on DU-145 prostate. For the same compound, the TGI in the experiment with SNB-75 CNS was found to be 46.6 µM; in the experiment with NCI-H23 lung it was 32.9 µM; in the experiment on SK-OV-3 ovarian, 67.1 µM; in the experiment with MOLT-4 leukemia, 33.2 µM; in the experiment on ACHN renal it was 49.2 µM; in the experiment with M14 melanoma, 34.5 µM. The TGI is 38.5 µM with OVCAR-8 ovarian, 30.4 µM in the experiment with SR leukemia and 34.6 µM in the experiment with SN12C renal.

In the case of `COc1cc2c(cc1OC)C(=O)N(c1ccc(O)cc1)C2=O`, the TGI with SW-620 colon, in the experiment with SF-539 CNS, in the experiment with NCI/ADR-RES ovarian, in the experiment with EKVX NSCLC, in the experiment on UACC-257 melanoma and in the experiment with DU-145 prostate was over 100 µM each time. For the same compound, the TGI with NCI-H23 lung, in the experiment with SK-OV-3 ovarian, with MOLT-4 leukemia, with ACHN renal, in the experiment on M14 melanoma and in the experiment with OVCAR-8 ovarian was over 100 µM each time. The TGI in the experiment with SR leukemia, with SN12C renal and in the experiment with SK-MEL-2 melanoma was over 100 µM in each case.

With `CC1=NC2=Nc3nc(C)cc[n+]3CN2C=C1`, the TGI is over 100 µM in the experiment on SW-620 colon; over 100 µM in the experiment on SF-539 CNS; over 100 µM in the experiment on NCI/ADR-RES ovarian; 75.8 µM in the experiment with EKVX NSCLC; over 100 µM in the experiment on UACC-257 melanoma; over 100 µM in the experiment with DU-145 prostate. For the same compound, the TGI in the experiment with SNB-75 CNS, in the experiment with NCI-H23 lung, in the experiment with SK-OV-3 ovarian, in the experiment with ACHN renal, in the experiment on M14 melanoma and with OVCAR-8 ovarian was over 100 µM throughout. Moreover, the TGI in the experiment on SN12C renal and with SK-MEL-2 melanoma was over 100 µM throughout.

For the compound `CN(Cc1cnc2nc(N)nc(N)c2n1)c1ccc(C(=O)N[C@@H](CCC(=O)O)C(=O)O)cc1`, the TGI in the experiment on SW-620 colon is 221 µM and > 250 µM; in the experiment with NCI/ADR-RES ovarian, over 250 µM; in the experiment on EKVX NSCLC, over 250 µM; in the experiment with UACC-257 melanoma it was over 237 µM; with DU-145 prostate, over 250 µM; with NCI-H23 lung, 117 µM. For the same compound, the TGI is over 250 µM in the experiment with SK-OV-3 ovarian; 159 µM in the experiment on MOLT-4 leukemia; over 233 µM in the experiment on ACHN renal; 240 µM and > 250 µM in the experiment with M14 melanoma; over 250 µM in the experiment with OVCAR-8 ovarian; 194 µM with SR leukemia. In addition, the TGI in the experiment with SN12C renal is 181 µM and > 250 µM; in the experiment with SK-MEL-2 melanoma, over 250 µM. Besides, the GI50 in the experiment on UACC-257 melanoma is 1.89 µM; with MOLT-4 leukemia it was 0.0278 µM; with OVCAR-8 ovarian, 0.0703 µM and 0.488 µM.

As for `CC(NC(=O)NC(C)(C)C)NC(=O)C(N)CC(=O)O` (stereo not drawn), the TGI with SW-620 colon, in the experiment on SF-539 CNS, in the experiment with NCI/ADR-RES ovarian, with EKVX NSCLC, with UACC-257 melanoma and with DU-145 prostate was over 100 µM in each case. The TGI in the experiment with SNB-75 CNS, in the experiment on NCI-H23 lung, in the experiment with SK-OV-3 ovarian, in the experiment on MOLT-4 leukemia, in the experiment on ACHN renal and in the experiment with M14 melanoma was over 100 µM each time. In addition, the TGI in the experiment on OVCAR-8 ovarian, in the experiment with SN12C renal and in the experiment on SK-MEL-2 melanoma was over 100 µM throughout.
